{"source": "patent US12281119B2", "about": "“Imidazo[2,1-f][1,2,4]triazin-4-amine derivatives as TLR7 agonist” (BEIGENE, LTD., priority 2019, dated 2025)", "note": "pEC50: −log10 of the molar value.", "data": [{"target": "T1, human TLR7 (Homo sapiens, UniProt Q9NYK1)", "T1 sequence (Q9NYK1 27-1049)": "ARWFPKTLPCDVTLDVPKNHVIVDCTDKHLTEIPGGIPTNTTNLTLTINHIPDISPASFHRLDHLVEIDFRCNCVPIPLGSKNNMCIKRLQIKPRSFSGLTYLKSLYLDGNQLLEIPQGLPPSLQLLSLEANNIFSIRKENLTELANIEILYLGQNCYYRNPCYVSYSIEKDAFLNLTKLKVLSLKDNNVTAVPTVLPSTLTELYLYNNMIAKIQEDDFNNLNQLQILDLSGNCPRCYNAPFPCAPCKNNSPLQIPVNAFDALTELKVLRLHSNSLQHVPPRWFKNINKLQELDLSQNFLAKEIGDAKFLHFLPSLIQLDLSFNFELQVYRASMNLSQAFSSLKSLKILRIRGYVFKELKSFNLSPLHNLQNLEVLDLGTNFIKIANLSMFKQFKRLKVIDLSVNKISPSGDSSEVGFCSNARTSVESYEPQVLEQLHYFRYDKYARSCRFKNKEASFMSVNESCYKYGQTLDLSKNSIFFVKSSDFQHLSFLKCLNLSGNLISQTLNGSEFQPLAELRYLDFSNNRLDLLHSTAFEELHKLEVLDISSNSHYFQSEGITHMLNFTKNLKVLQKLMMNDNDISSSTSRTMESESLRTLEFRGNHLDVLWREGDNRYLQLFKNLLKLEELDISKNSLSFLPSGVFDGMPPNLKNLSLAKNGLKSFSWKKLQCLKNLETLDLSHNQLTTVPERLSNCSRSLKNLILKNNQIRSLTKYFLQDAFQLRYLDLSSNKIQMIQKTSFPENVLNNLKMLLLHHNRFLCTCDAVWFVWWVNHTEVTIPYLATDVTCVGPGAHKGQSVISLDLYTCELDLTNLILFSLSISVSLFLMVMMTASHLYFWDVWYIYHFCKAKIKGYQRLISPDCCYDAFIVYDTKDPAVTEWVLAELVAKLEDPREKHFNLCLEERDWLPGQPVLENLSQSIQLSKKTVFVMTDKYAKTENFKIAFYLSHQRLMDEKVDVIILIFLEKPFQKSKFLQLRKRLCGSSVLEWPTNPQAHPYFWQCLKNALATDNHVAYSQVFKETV", "assay": "HEK293-Blue hTLR7 reporter assay (QUANTI-BLUE, SEAP readout)", "format": "cell-based", "set-up": "host or cells: HEK293 (HEK-Blue-hTLR7)", "details": "HEK-Blue-hTLR7 cells, QUANTI-BLUE assay (A1-A76), 24 hrs", "experimental": "HEK293-Blue hTLR7 Reporter Assay:\nHEK-Blue-hTLR7 cell line (Invivogen, Cat. No. hkb-htlr7) was designed so that the expression of the secreted embryonic alkaline phosphatase (SEAP) was induced by activating NF-κ and AP-1 via stimulating human TLR7 with TLR7 agonists.\nHEK-Blue-hTLR7 cells were seeded at a density of 4×10^4 cells/well in a volume of 180 μL in a 96-well plate in DMEM (Cat. No. 11965-092) supplemented with 10% (v/v) heat-inactivated fetal bovine serum (FBS) (Gibco, 10099-1441), 100 U/ml penicillin and 100 μg/ml streptomycin (Gibco, 15140122) containing […], […] and 10% (v/v) heat-inactivated fetal bovine serum. The cells were settled for 5 hrs, then treated with increasing amounts of tested compounds at 37° C. for 24 hrs. Then 20 μL of the supernatant from each well was incubated with 180 uL Quanti-blue substrate solution at 37° C. for 10-30 mins before the activity of the SEAP was determined at 620-655 nm using a spectrophotometer. The EC50 value for each compound was calculated with GraphPad Prism software using the sigmoidal dose-response function.", "values": [{"smiles": "CCCCOc1nc(N)c2ncc(Cc3ccc(OCCNC)nc3)n2n1", "note": "[Compound A58, 2-butoxy-7-((6-(2-(methylamino)ethoxy)pyridin-3-yl)methyl)imidazo[2,1-f][1,2,4]triazin-4-amine]", "pEC50": 6.61}, {"smiles": "CCCCOc1nc(N)c2ncc(Cc3ccc4c(c3)CCN(C(C)C)C4)n2n1", "note": "[Compound A8, 2-butoxy-7-((2-isopropyl-1,2,3,4-tetrahydroisoquinolin-6-yl)methyl)imidazo[2,1-f][1,2,4]triazin-4-amine]", "pEC50": 5.52}, {"smiles": "CCCCOc1nc(N)c2ncc(Cc3ccc(CN4CCNCC4)cc3)n2n1", "note": "[Compound A10, 2-butoxy-7-(4-(piperazin-1-ylmethyl)benzyl)imidazo[2,1-f][1,2,4]triazin-4-amine]", "pEC50": 5.93}, {"smiles": "CCCCOc1nc(N)c2ncc(Cc3ccccc3CN3CCCC3)n2n1", "note": "[Compound A19, 2-butoxy-7-(2-(pyrrolidin-1-ylmethyl)benzyl)imidazo[2,1-f][1,2,4]triazin-4-amine]", "pEC50": "< 5.00"}, {"smiles": "CCCCOc1nc(N)c2ncc(Cc3ccc(OCCCN4CCCC4)cc3)n2n1", "note": "[Compound A28, 2-butoxy-7-(4-(3-(pyrrolidin-1-yl)propoxy)benzyl)imidazo[2,1-f][1,2,4]triazin-4-amine]", "pEC50": 5.75}, {"smiles": "CCCCOc1nc(N)c2ncc(Cc3ccc(F)c(OCCCN(C)C)c3)n2n1", "note": "[Compound A24, 2-butoxy-7-(3-(3-(dimethylamino)propoxy)-4-fluorobenzyl)imidazo[2,1-f][1,2,4]triazin-4-amine]", "pEC50": "< 5.00"}, {"smiles": "CCCCOc1nc(N)c2ncc(C(O)c3ccccn3)n2n1", "note": "(stereo not shown) [Compound A74, (4-amino-2-butoxyimidazo[2,1-f][1,2,4]triazin-7-yl)(pyridin-2-yl)methanol]", "pEC50": "< 5.00"}, {"smiles": "CCCCOc1nc(N)c2ncc(Cc3ccc(CN4CCN(C(=O)CN(C)C)CC4)cc3)n2n1", "note": "[Compound A39, 1-(4-(4-((4-amino-2-butoxyimidazo[2,1-f][1,2,4]triazin-7-yl)methyl)benzyl)piperazin-1-yl)-2-(dimethylamino)ethan-1-one]", "pEC50": 6.27}, {"smiles": "Nc1nc(O)nn2c(Cc3ccc(CN4CCCC4)cc3)cnc12", "note": "[Compound A65, 4-amino-7-(4-(pyrrolidin-1-ylmethyl)benzyl)imidazo[2,1-f][1,2,4]triazin-2-ol]", "pEC50": "< 5.00"}, {"smiles": "CCCCOc1nc(N)c2ncc(Cc3cnc(OCCCN(C)C)c(Cl)c3)n2n1", "note": "[Compound A34, 2-butoxy-7-((5-chloro-6-(3-(dimethylamino)propoxy)pyridin-3-yl)methyl)imidazo[2,1-f][1,2,4]triazin-4-amine]", "pEC50": 5.47}, {"smiles": "CCCCOc1nc(N)c2ncc(Cc3cnc(OC4CCNCC4)c(C)c3)n2n1", "note": "[Compound A72, 2-butoxy-7-((5-methyl-6-(piperidin-4-yloxy)pyridin-3-yl)methyl)imidazo[2,1-f][1,2,4]triazin-4-amine]", "pEC50": 6.34}, {"smiles": "CCCCOc1nc(N)c2ncc(Cc3cnn(CC4CCCNC4)c3)n2n1", "note": "(stereo not shown) [Compound A76, 2-butoxy-7-((1-(piperidin-3-ylmethyl)-1H-pyrazol-4-yl)methyl)imidazo[2,1-f][1,2,4]triazin-4-amine]", "pEC50": "< 5.00"}, {"smiles": "CCCCOc1nc(N)c2ncc(Cc3ccccc3CN3CCCCC3)n2n1", "note": "[Compound A15, 2-butoxy-7-(2-(piperidin-1-ylmethyl)benzyl)imidazo[2,1-f][1,2,4]triazin-4-amine]", "pEC50": "< 5.00"}, {"smiles": "CC(C)COc1nc(N)c2ncc(Cc3ccc(CN4CCCC4)cc3)n2n1", "note": "[Compound A54, 2-isobutoxy-7-(4-(pyrrolidin-1-ylmethyl)benzyl)imidazo[2,1-f][1,2,4]triazin-4-amine]", "pEC50": "< 5.00"}, {"smiles": "CCCCOc1nc(N)c2ncc(Cc3ccc(OCCCN4CCCCC4)cc3)n2n1", "note": "[Compound A21, 2-butoxy-7-(4-(3-(piperidin-1-yl)propoxy)benzyl)imidazo[2,1-f][1,2,4]triazin-4-amine]", "pEC50": 5.54}, {"smiles": "CCCCNc1nc(N)c2ncc(Cc3ccc(CN4CCCC4)cc3)n2n1", "note": "[Compound A67, N2-butyl-7-(4-(pyrrolidin-1-ylmethyl)benzyl)imidazo[2,1-f][1,2,4]triazine-2,4-diamine]", "pEC50": 6.23}, {"smiles": "CCCCOc1nc(N)c2ncc(Cc3ccc(OCCN)nc3)n2n1", "note": "[Compound A37, 7-((6-(2-aminoethoxy)pyridin-3-yl)methyl)-2-butoxyimidazo[2,1-f][1,2,4]triazin-4-amine]", "pEC50": "< 5.00"}, {"smiles": "CCCCOc1nc(N)c2ncc(Cc3ccc(OCCCNC)cc3)n2n1", "note": "[Compound A63, 2-butoxy-7-(4-(3-(methylamino)propoxy)benzyl)imidazo[2,1-f][1,2,4]triazin-4-amine]", "pEC50": 6.00}, {"smiles": "CCCCOc1nc(N)c2ncc(Cc3ccc(OC4CCN(CC)C4)cc3F)n2n1", "note": "(stereo not shown) [Compound A60, 2-butoxy-7-(4-((1-ethylpyrrolidin-3-yl)oxy)-2-fluorobenzyl)imidazo[2,1-f][1,2,4]triazin-4-amine]", "pEC50": 6.61}]}, {"target": "T2, human TLR 8 protein (Homo sapiens, UniProt Q9NR97)", "T2 construct": "expressed in transfected cells; host or cells: HEK293 (HEK-Blue hTLR8)", "T2 sequence (Q9NR97 27-1041)": "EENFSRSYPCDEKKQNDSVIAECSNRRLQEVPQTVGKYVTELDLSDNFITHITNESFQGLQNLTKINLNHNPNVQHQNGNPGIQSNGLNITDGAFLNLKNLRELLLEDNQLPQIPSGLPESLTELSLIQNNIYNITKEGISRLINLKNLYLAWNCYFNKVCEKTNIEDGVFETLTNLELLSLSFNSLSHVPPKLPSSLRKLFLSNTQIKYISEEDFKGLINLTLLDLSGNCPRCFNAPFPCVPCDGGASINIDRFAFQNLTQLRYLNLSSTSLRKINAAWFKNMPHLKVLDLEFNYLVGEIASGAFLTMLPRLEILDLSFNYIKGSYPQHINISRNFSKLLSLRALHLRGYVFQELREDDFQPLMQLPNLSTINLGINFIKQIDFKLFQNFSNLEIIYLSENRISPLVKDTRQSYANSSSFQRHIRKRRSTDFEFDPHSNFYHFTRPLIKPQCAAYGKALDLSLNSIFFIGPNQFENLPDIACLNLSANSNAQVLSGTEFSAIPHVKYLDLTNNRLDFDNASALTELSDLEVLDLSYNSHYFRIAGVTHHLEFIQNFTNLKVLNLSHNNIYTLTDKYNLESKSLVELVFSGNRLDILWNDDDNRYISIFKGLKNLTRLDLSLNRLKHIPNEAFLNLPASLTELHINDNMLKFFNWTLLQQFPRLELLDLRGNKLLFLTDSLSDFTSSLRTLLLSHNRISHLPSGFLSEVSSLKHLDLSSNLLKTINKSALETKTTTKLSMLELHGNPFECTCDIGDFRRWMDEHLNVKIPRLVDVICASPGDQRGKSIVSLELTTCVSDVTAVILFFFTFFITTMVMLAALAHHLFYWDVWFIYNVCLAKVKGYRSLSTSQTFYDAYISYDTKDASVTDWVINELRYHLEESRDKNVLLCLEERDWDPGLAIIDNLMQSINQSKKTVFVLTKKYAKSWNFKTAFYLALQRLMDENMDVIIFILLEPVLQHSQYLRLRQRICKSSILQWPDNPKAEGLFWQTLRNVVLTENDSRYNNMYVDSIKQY", "assay": "TLR8 stimulation determined using HEK-Blue Detection", "format": "cell-based", "details": "HEK-Blue hTLR8 cells, 16 hr, relative to Resiquimod or Motolimod maximum", "excerpt": "TLR8 Stimulation Determined Using HEK-Blue Detection\nThis assay was designed for studying the stimulation of human TLR 8 protein in HEK-Blue hTLR8 tool cell line by monitoring the activation of NF-1B. HEK-Blue hTLR8 cells were obtained by co-transfection of the hTLR8 gene and an optimized secreted embryonic alkaline phosphatase (SEAP) reporter gene into HEK293 cells. The SEAP reporter gene was placed under the control of the IFN-β minimal promoter fused to five NF-κB and AP-1-binding sites. Stimulation with a TLR 8 ligand activates NF-κB and AP-1 which induce the expression of SEAP. Levels of SEAP can be easily determined with HEK-Blue Detection, a cell culture medium that allows for real-time detection of SEAP. HEK-Blue Detection contains all the nutrients necessary for cell growth and a specific SEAP color substrate. The hydrolysis of the substrate by SEAP produces a purple/blue color that can be measured with a spectrophotometer.\nWhen growing to 50-80% confluency, HEK-Blue hTLR7/8 cells were plated into 96-well plate (costar 3599) at a density of 40000 cells/well. Then compounds were added with serial dilutions over 10 points with a 1 nM-10 uM final concentration range in 0.1% DMSO/HEK-Blue Detection. The plates were then incubated for 16 hr at 37° C. in 5% CO2. The optical density at 620-655 nm was read on BMG PHERAstar FSX instrument. The EC50 for each compound was determined by calculating the percentages of the maximum activation identified with Resiquimod or Motolimod.", "values": [{"smiles": "CCCCOc1nc(N)c2ncc(Cc3ccc(OCCNC)nc3)n2n1", "note": "[Compound A58, 2-butoxy-7-((6-(2-(methylamino)ethoxy)pyridin-3-yl)methyl)imidazo[2,1-f][1,2,4]triazin-4-amine]", "pEC50": 6.74}, {"smiles": "CCCCOc1nc(N)c2ncc(Cc3ccc4c(c3)CCN(C(C)C)C4)n2n1", "note": "[Compound A8, 2-butoxy-7-((2-isopropyl-1,2,3,4-tetrahydroisoquinolin-6-yl)methyl)imidazo[2,1-f][1,2,4]triazin-4-amine]", "pEC50": 6.73}, {"smiles": "CCCCOc1nc(N)c2ncc(Cc3ccc(CN4CCNCC4)cc3)n2n1", "note": "[Compound A10, 2-butoxy-7-(4-(piperazin-1-ylmethyl)benzyl)imidazo[2,1-f][1,2,4]triazin-4-amine]", "pEC50": 6.24}]}]}
